Measured values from patent US8202865B2, “Oxadiazole derivatives” (Merck Serono SA, priority 2007, dated 2012).
Where a name gives a salt, the structure may show the parent alone.

Target: T1, S1P1 (Homo sapiens, UniProt P21453)
T1 construct: expressed in transfected cells; host or cells: CHO cells (membranes)
Experiment: 35S-GTPγS binding, S1P1 membranes
Type: biochemical
Settings: membranes from CHO cells expressing S1P1; 60 min 30° C.
Experimental: Receptor binding assay: Membranes were prepared from CHO cells expressing S1P1 or S1P3 for use in ligand and […] binding studies. Cells were suspended in 50 mM TRIS, pH 7.4, 2 mM EDTA, 250 mM Sucrose (buffer A) and 1× Complete protease inhibitor cocktail (Roche), and disrupted at 4° C. by N2 decompression using a cell disruption bomb (Parr Instrument). Following centrifugation at 1000 RPM for 10 min at 4° C., the supernatant was suspended in buffer A and centrifuged again at 19000 RPM for 60 min at 4° C. The pellet was then suspended in 10 mM HEPES, pH 7.4, 1 mM EDTA, 250 mM Sucrose (Buffer B), and 1× Complete EDTA-free protease inhibitor cocktail and homogenized using a potter. Membranes were flash frozen in liquid N2 and stored at −80° C. [33P]sphingosine 1-phosphate (3000 Ci/mmol; American Radiolabeled Chemicals, Inc.) was added to test compounds in DMSO. Membranes and WGA SPA beads (GE Healthcare) were added to give a final volume of 100 μl in 96-well plates with assay concentrations of 25 pM or 10 pM [33P]sphingosine 1-phosphate (respectively for S1P1 or S1P3), 50 mM HEPES, pH 7.5, 5 mM MgCl2, 100 mM NaCl, 0.4% fatty acid-free BSA, 1-5 μg/well of proteins and 100 μg/well of WGA SPA beads. Binding was performed for 60 min at RT on a shaker and bound radioactivity was measured on a PerkinElmer 1450 MicroBeta counter. Specific binding was calculated by subtracting remaining radioactivity in the presence of 1000-fold excess of unlabeled S1P. Binding data were analyzed using the GraphPad Prism program.
Measurements of ^35S-GTPγS Binding: Membranes (1 to 10 μg protein) prepared as described above, were incubated in 96-well Scintiplates (PerkinElmer) with test compounds diluted in DMSO, in 180 μl of 20 mM HEPES, pH 7.4, 10 mM MgCl2, 2 μg/well Saponin, 0.2% fatty acid free BSA (Assay buffer), 140 mM NaCl and 1.7 μM GDP. The assay was initiated with the addition of 20 μl of 1.5 nM [35S]-GTPγS (1100 Ci/mmol; GE Healthcare) in assay buffer. After 60 min incubation at 30° C. on a shaker, plates were centrifuged for 10 min at 2000 RPM. Supernatant was discarded and membrane bound radioactivity was measured on a PerkinElmer 1450 MicroBeta counter. Triplicate samples were averaged and expressed as % response relative to S1P activation in absence of compound (n=2).

T1 sequence (P21453 whole entry, species assumed): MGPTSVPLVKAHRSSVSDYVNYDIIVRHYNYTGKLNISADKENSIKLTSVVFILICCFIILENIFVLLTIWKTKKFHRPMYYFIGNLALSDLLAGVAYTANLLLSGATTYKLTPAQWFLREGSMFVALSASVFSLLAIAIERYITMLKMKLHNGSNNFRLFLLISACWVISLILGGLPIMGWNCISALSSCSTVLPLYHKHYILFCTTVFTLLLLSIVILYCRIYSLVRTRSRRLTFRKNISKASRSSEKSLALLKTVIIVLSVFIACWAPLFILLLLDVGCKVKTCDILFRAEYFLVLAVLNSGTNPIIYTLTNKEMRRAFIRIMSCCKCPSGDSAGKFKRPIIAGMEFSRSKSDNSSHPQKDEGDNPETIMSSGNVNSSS

In order of falling EC50:
1. COc1ccc(-c2ccc(-c3nc(-c4ccc(C(=O)O)c(F)c4)no3)cc2C)c(OC)c1 [Example 20, 4-[3-(2′,4′-dimethoxy-2-methylbiphenyl-4-yl)-1,2,4-oxadiazol-3-yl]-2-fluorobenzoic acid]  10900 nM
2. CC(=O)Nc1cc(-c2nc(-c3ccc(C(=O)O)c(F)c3)no2)ccc1N1CCCCC1C (centres unmarked) [Example 65, 4-{5-[3-(acetylamino)-4-(2-methylpiperidin-1-yl)phenyl]-1,2,4-oxadiazol-3-yl}-2-fluorobenzoic acid]  10400 nM
3. CCCN(CC(C)C)c1ccc(-c2nc(-c3ccc(C(=O)O)c(F)c3)no2)cc1NS(C)(=O)=O [Example 66, 2-fluoro-4-(5-{4-[isobutyl(propyl)amino]-3-[(methylsulfonyl)amino]phenyl}-1,2,4-oxadiazol-3-yl)benzoic acid]  10000 nM
4. Cc1ccccc1-c1ccc(-c2nc(-c3ccc(O)c(C(=O)O)c3)no2)cc1C [Example 43, 5-[5-(2,2′-dimethylbiphenyl-4-yl)-1,2,4-oxadiazol-3-yl]-2-hydroxybenzoic acid]  4360 nM
5. Cc1ccccc1-c1ccc(-c2nc(-c3ccc(C(=O)O)c(F)c3)no2)cc1S(C)(=O)=O [Example 83, 2-fluoro-4-{5-[2′-methyl-2-(methylsulfonyl)biphenyl-4-yl]-1,2,4-oxadiazol-3-yl}benzoic acid]  3990 nM
6. Cc1cc(-c2nc(-c3ccc(C(=O)O)c(F)c3)no2)ccc1-c1ccccc1O [Example 32, 2-fluoro-4-[5-(2′-hydroxy-2-methylbiphenyl-4-yl)-1,2,4-oxadiazol-3-yl]benzoic acid]  2920 nM
7. CNCc1cc(-c2nc(-c3ccc(C(=O)O)c(F)c3)no2)ccc1-c1ccccc1C [Example 77, 2-fluoro-4-(5-{2′-methyl-2-[(methylamino)methyl]biphenyl-4-yl}-1,2,4-oxadiazol-3-yl)benzoic acid, Hydrochloride salt]  2900 nM
8. Cc1ccccc1-c1ccc(-c2nc(-c3ccc(C(=O)O)c(F)c3)no2)cc1COCC1CC1 [Example 61, 4-(5-{2-[(cyclopropylmethoxy)methyl]-2′-methylbiphenyl-4-yl}-1,2,4-oxadiazol-3-yl)-2-fluorobenzoic acid]  2240 nM
9. COCc1cc(-c2nc(-c3ccc(C(=O)O)c(F)c3)no2)ccc1-c1ccc(F)cc1C [Example 94, 2-fluoro-4-{5-[4′-fluoro-2-(methoxymethyl)-2′-methylbiphenyl-4-yl]-1,2,4-oxadiazol-3-yl}benzoic acid]  513 nM
10. COC(=O)c1ccc(-c2noc(-c3ccc(N(C)C)c(NS(C)(=O)=O)c3)n2)cc1F [Example 71, methyl 4-(5-{4-(dimethylamino)-3-[(methylsulfonyl)amino]phenyl}-1,2,4-oxadiazol-3-yl)-2-fluorobenzoate]  481 nM
11. CCOc1ccccc1-c1ccc(-c2nc(-c3ccc(C(=O)O)c(F)c3)no2)cc1COC [Example 90, 4-{5-[2′-ethoxy-2-(methoxymethyl)biphenyl-4-yl]-1,2,4-oxadiazol-3-yl}-2-fluorobenzoic acid]  479 nM
12. COCc1cc(-c2nc(-c3ccc(C(=O)O)c(F)c3)no2)ccc1-c1cc(F)ccc1F [Example 91, 4-{5-[2′,5′-difluoro-2-(methoxymethyl)biphenyl-4-yl]-1,2,4-oxadiazol-3-yl}-2-fluorobenzoic acid]  410 nM
13. CCc1cnc(CCNC(=O)c2ccc(-c3noc(-c4ccc(-c5ccccc5C)c(COC)c4)n3)cc2F)o1 [Example 176, N-[2-(5-ethyl-1,3-oxazol-2-yl)ethyl]-2-fluoro-4-{5-[2-(methoxymethyl)-2′-methylbiphenyl-4-yl]-1,2,4-oxadiazol-3-yl}benzamide]  197 nM
14. CCOC(=O)C1(NCc2cccc(-c3noc(-c4ccc(-c5ccccc5C)c(COC)c4)n3)c2)CC1 [Example 140, Ethyl 1-[(3-{5-[2-(methoxymethyl)-2′-methylbiphenyl-4-yl]-1,2,4-oxadiazol-3-yl}benzyl)amino]cyclopropanecarboxylate]  142 nM
15. COCc1cc(-c2nc(-c3cc(C(=O)O)ccc3OC)no2)ccc1-c1ccccc1C [Example 107, 4-methoxy-3-{5-[2-(methoxymethyl)-2′-methylbiphenyl-4-yl]-1,2,4-oxadiazol-3-yl}benzoic acid]  133 nM
16. Cc1ccccc1-c1ccc(-c2nc(-c3ccc(C(=O)O)c(F)c3)no2)cc1OCC1CC1 [Example 105, 4-{5-[2-(cyclopropylmethoxy)-2′-methylbiphenyl-4-yl]-1,2,4-oxadiazol-3-yl}-2-fluorobenzoic acid]  103 nM
17. COCc1cc(-c2nc(-c3cccc(C(=O)N(C)CC(=O)O)c3)no2)ccc1-c1ccccc1C [Example 138, N-(3-{5-[2-(methoxymethyl)-2′-methylbiphenyl-4-yl]-1,2,4-oxadiazol-3-yl}benzoyl)-N-methylglycine]  48.6 nM
18. COCc1cc(-c2nc(-c3cccc(C(=O)N(C)CC(=O)OC)c3)no2)ccc1-c1ccccc1C [Example 136, Methyl N-(3-{5-[2-(methoxymethyl)-2′-methylbiphenyl-4-yl]-1,2,4-oxadiazol-3-yl}benzoyl)-N-methylglycinate]  46 nM
19. COCc1cc(-c2nc(-c3ccc(C(=O)NC(C)(C)C(=O)O)c(F)c3)no2)ccc1-c1ccccc1C [Example 129, N-(2-fluoro-4-{5-[2-(methoxymethyl)-2′-methylbiphenyl-4-yl]-1,2,4-oxadiazol-3-yl}benzoyl)-2-methylalanine]  40 nM
20. CCc1nnn(CCNC(=O)c2ccc(-c3noc(-c4ccc(-c5ccccc5C)c(COC)c4)n3)cc2F)n1 [Example 180, N-[2-(5-ethyl-2H-tetrazol-2-yl)ethyl]-2-fluoro-4-{5-[2-(methoxymethyl)-2′-methylbiphenyl-4-yl]-1,2,4-oxadiazol-3-yl}benzamide]  26 nM
21. COCc1cc(-c2nc(-c3cccc(C(=O)NCCCC(=O)OC)c3)no2)ccc1-c1ccccc1C [Example 137, Methyl 4-[(3-{5-[2-(methoxymethyl)-2′-methylbiphenyl-4-yl]-1,2,4-oxadiazol-3-yl}benzoyl)amino]butanoate]  25 nM
22. COCCNC(=O)c1cccc(-c2noc(-c3ccc(-c4ccccc4C)c(COC)c3)n2)c1 [Example 181, N-(2-methoxyethyl)-3-{5-[2-(methoxymethyl)-2′-methylbiphenyl-4-yl]-1,2,4-oxadiazol-3-yl}benzamide]  16 nM
23. COCc1cc(-c2nc(-c3ccc(F)c(CN(C)CC(=O)O)c3)no2)ccc1OC(C)C [Example 158, N-(2-fluoro-5-{5-[4-isopropoxy-3-(methoxymethyl)phenyl]-1,2,4-oxadiazol-3-yl}benzyl)-N-methylglycine, Hydrochloride salt]  10 nM
24. COCCNCc1cccc(-c2noc(-c3ccc(-c4ccccc4C)c(COC)c3)n2)c1 [Example 188, 2-methoxy-N-(3-{5-[2-(methoxymethyl)-2′-methylbiphenyl-4-yl]-1,2,4-oxadiazol-3-yl}benzyl)ethanamine, Hydrochloride salt]  4 nM
25. COc1cc(-c2nc(-c3ccc(S(N)(=O)=O)cc3)no2)ccc1-c1cscc1C [Example 39, 4-{5-[3-methoxy-4-(4-methyl-3-thienyl)phenyl]-1,2,4-oxadiazol-3-yl}benzenesulfonamide]  2.9 nM
26. COCc1cc(-c2nc(-c3cccc(CCOCC(=O)O)c3)no2)ccc1-c1ccccc1C [Example 161, [2-(3-{5-[2-(methoxymethyl)-2′-methylbiphenyl-4-yl]-1,2,4-oxadiazol-3-yl}phenyl)ethoxy]acetic acid]  2.1 nM
27. COCc1cc(-c2nc(-c3cccc(OCCCC(=O)O)c3)no2)ccc1N1CCCCC1C (centres unmarked) [Example 164, 4-(3-{5-[3-(methoxymethyl)-4-(2-methylpiperidin-1-yl)phenyl]-1,2,4-oxadiazol-3-yl}phenoxy)butanoic acid]  1.5 nM
28. CC1CCCCN1c1ccc(-c2nc(-c3ccc(S(N)(=O)=O)cc3)no2)cc1C(F)(F)F (centres unmarked) [Example 38, 4-{5-[4-(2-methylpiperidin-1-yl)-3-(trifluoromethyl)phenyl]-1,2,4-oxadiazol-3-yl}benzenesulfonamide]  1.5 nM
29. COCc1cc(-c2nc(-c3cccc(COCC(=O)O)c3)no2)ccc1-c1ccccc1C [Example 160, [(3-{5-[2-(methoxymethyl)-2′-methylbiphenyl-4-yl]-1,2,4-oxadiazol-3-yl}benzyl)oxy]acetic acid]  0.6 nM
